Measurements published in patent US20040266811A1, “Methods for inducing regeneration, remyelination, and hypermyelination of nervous tissue” (priority 2002, published 2004).
Entries after “also recorded” stand apart in the source; their conditions may differ.

Key:
DRG explants = assay: DRG explant neurite outgrowth with anti-NGF neutralizing antibodies or MEK1 inhibitor; assay type: cell-based, C57B1/6 mice
Procedure: (A) DRGs were prepared and cultured as above, except that either the MEK1 inhibitor, PD 098059, or NGF-neutralizing antibodies were included in cultures treated with either NGF or GM-284. Maximal response was determined to be the extent of neurite outgrowth when DRGs were cultured in NGF alone (spotted bars) or in 1 μM GM-284 (striped bars). As indicated, DRGs were treated with either NGF or GM-284, in the presence of either 0.25 mg/ml anti-NGF neutralizing antibodies or PD 098059. […] DRGs were treated with 100 ng/ml NGF or 1 μM GM-284, for 30 min or 4 h, as indicated, and the detergent lysates were prepared and immunoblotted with anti-phospho-Erk monoclonal antibody. The p42 and p44 bands are indicated by arrowheads.
Explanted DRG ganglia were dissected from P1 to P3 C57B1/6 mice, as previously described (Weinstein et al., Targeted expression of an oncogenic adaptor protein v-Crk potentiates axonal growth in dorsal root ganglia and motor neurons in vivo. Brain Res. Dev. Brain Res., 116:29-39, 1999). Briefly, DRGs were dissected and placed in ice-cold PBS containing 2% glucose, then transferred onto polyornithine/laminin-coated tissue culture plates (Biocoat, Becton Dickinson Laboratories) in DMEM-plating medium overnight. The plating medium consisted of Dulbecco's minimal essential plating medium (DMEM) supplemented with 10% fetal calf serum (FCS; Hyclone), 0.6% glucose, 2 mM glutamine, 100 U/ml penicillin, 100 μg/ml streptomycin, and 20 mM HEPES. […] For experiments employing anti-NGF neutralizing antibodies, cultures were incubated with […] anti-NGF antiserum, and replaced every two days. Cultures were kept at 37° C., in 5% CO2, for up to 1 week, at which time the extent of well-defined neurite outgrowth was assessed.
Signaling by the neurotrophins, while mediated by different cell-surface receptors, converges on the extensively studied and well-characterized MAP kinase pathway. […] Therefore, the inventors explored the possibility that GM-284 might signal through NGF directly, or through the MAP kinase cascade. […]

[1] = system: purified chick sensory neurons (PC12 or SH-SY5Y cells); conditions: literature; cited from earlier work
calcineurin = conditions: cited from earlier work

Compound | effect of anti-NGF / MEK1 inhibition on GM-284-mediated neurite outgrowth (DRG explants; DRGs cultured in 1 μM GM-284 plus inhibitor) | decrease of NGF-dependent neurite outgrowth (DRG explants; DRGs cultured in NGF plus inhibitor) | neurite outgrowth without other signaling molecules / with sub-threshold NGF [1] | binding to / inhibition of calcineurin (calcineurin)
COc1cccc(-c2cc(=O)c3ccccc3o2)c1N [PD 098059] | no effect | ~40% |  | 
CCC(C)(C)C(=O)C(=O)N1CCC[C@H]1C(=O)OCCCc1cccnc1 [GPI-1046] |  |  | potentiate neurite outgrowth only when co-administered with sub-threshold concentrations of NGF; also recorded: unable to mediate neurite outgrowth in the absence of other signaling molecules | neither bind to, nor inhibit, calcineurin
